Tested on: Detoxification protein genes
Assay: DNA chip mRNA expression in yeast, detoxification protein genes (Table 8)
Type: cell-based, Saccharomyces cerevisiae S288C
In short: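 In this screen, yeast in logarithmic growth are challenged for two hours with a toxic substance at a non-lethal inhibitory concentration. Their mRNA, converted to Cy3- or Cy5-labeled cDNA, hybridizes at 65° C. to a chip spanning every yeast gene, and expression is expressed as a ratio to untreated cells.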

## CCCCCCCCCCCCOS(=O)(=O)[O-].[Na+] [(18), sodium lauryl sulfate]
Yeast gene YBL064C
  The level of expressed mRNA in the presence of chemical substance/The level of expressed mRNA in the absence of chemical substance: 2.3
Yeast gene YBR008C
  The level of expressed mRNA in the presence of chemical substance/The level of expressed mRNA in the absence of chemical substance: 1.2
Yeast gene YBR145W
  The level of expressed mRNA in the presence of chemical substance/The level of expressed mRNA in the absence of chemical substance: 2.0
Yeast gene YBR244W
  The level of expressed mRNA in the presence of chemical substance/The level of expressed mRNA in the absence of chemical substance: 1.2
Yeast gene YBR293W
  The level of expressed mRNA in the presence of chemical substance/The level of expressed mRNA in the absence of chemical substance: 0.9
Yeast gene YCL035C
  The level of expressed mRNA in the presence of chemical substance/The level of expressed mRNA in the absence of chemical substance: 4.2
Yeast gene YCL069W
  The level of expressed mRNA in the presence of chemical substance/The level of expressed mRNA in the absence of chemical substance: 1.0
Yeast gene YCR083W
  The level of expressed mRNA in the presence of chemical substance/The level of expressed mRNA in the absence of chemical substance: 1.3
Yeast gene YDL100C
  The level of expressed mRNA in the presence of chemical substance/The level of expressed mRNA in the absence of chemical substance: 1.4
Yeast gene YDL168W
  The level of expressed mRNA in the presence of chemical substance/The level of expressed mRNA in the absence of chemical substance: 0.8
Yeast gene YDR256C
  The level of expressed mRNA in the presence of chemical substance/The level of expressed mRNA in the absence of chemical substance: 2.0
Yeast gene YDR453C
  The level of expressed mRNA in the presence of chemical substance/The level of expressed mRNA in the absence of chemical substance: 1.5
Yeast gene YDR513W
  The level of expressed mRNA in the presence of chemical substance/The level of expressed mRNA in the absence of chemical substance: 3.2
Yeast gene YDR538W
  The level of expressed mRNA in the presence of chemical substance/The level of expressed mRNA in the absence of chemical substance: 0.9
Yeast gene YEL027W
  The level of expressed mRNA in the presence of chemical substance/The level of expressed mRNA in the absence of chemical substance: 1.4
Yeast gene YEL065W
  The level of expressed mRNA in the presence of chemical substance/The level of expressed mRNA in the absence of chemical substance: 0.6
Yeast gene YER185W
  The level of expressed mRNA in the presence of chemical substance/The level of expressed mRNA in the absence of chemical substance: 1.1
Yeast gene YFL050C
  The level of expressed mRNA in the presence of chemical substance/The level of expressed mRNA in the absence of chemical substance: 1.0
Yeast gene YGL013C
  The level of expressed mRNA in the presence of chemical substance/The level of expressed mRNA in the absence of chemical substance: 1.0
Yeast gene YGL254W
  The level of expressed mRNA in the presence of chemical substance/The level of expressed mRNA in the absence of chemical substance: 1.2
Yeast gene YGR088W
  The level of expressed mRNA in the presence of chemical substance/The level of expressed mRNA in the absence of chemical substance: 2.0
Yeast gene YGR138C
  The level of expressed mRNA in the presence of chemical substance/The level of expressed mRNA in the absence of chemical substance: 0.7
Yeast gene YGR197C
  The level of expressed mRNA in the presence of chemical substance/The level of expressed mRNA in the absence of chemical substance: 1.9
Yeast gene YGR209C
  The level of expressed mRNA in the presence of chemical substance/The level of expressed mRNA in the absence of chemical substance: 2.4
Yeast gene YGR224W
  The level of expressed mRNA in the presence of chemical substance/The level of expressed mRNA in the absence of chemical substance: 1.3
Yeast gene YHL040C
  The level of expressed mRNA in the presence of chemical substance/The level of expressed mRNA in the absence of chemical substance: 1.0
Yeast gene YHL047C
  The level of expressed mRNA in the presence of chemical substance/The level of expressed mRNA in the absence of chemical substance: 1.2
Yeast gene YHR008C
  The level of expressed mRNA in the presence of chemical substance/The level of expressed mRNA in the absence of chemical substance: 1.0
Yeast gene YHR048W
  The level of expressed mRNA in the presence of chemical substance/The level of expressed mRNA in the absence of chemical substance: 0.9
Yeast gene YHR053C
  The level of expressed mRNA in the presence of chemical substance/The level of expressed mRNA in the absence of chemical substance: 0.5
Yeast gene YHR055C
  The level of expressed mRNA in the presence of chemical substance/The level of expressed mRNA in the absence of chemical substance: 0.6
Yeast gene YIR002C
  The level of expressed mRNA in the presence of chemical substance/The level of expressed mRNA in the absence of chemical substance: 1.2
Yeast gene YIR038C
  The level of expressed mRNA in the presence of chemical substance/The level of expressed mRNA in the absence of chemical substance: 2.0
Yeast gene YJL101C
  The level of expressed mRNA in the presence of chemical substance/The level of expressed mRNA in the absence of chemical substance: 1.0
Yeast gene YJR104C
  The level of expressed mRNA in the presence of chemical substance/The level of expressed mRNA in the absence of chemical substance: 1.1
Yeast gene YKL026C
  The level of expressed mRNA in the presence of chemical substance/The level of expressed mRNA in the absence of chemical substance: 3.3
Yeast gene YKL064W
  The level of expressed mRNA in the presence of chemical substance/The level of expressed mRNA in the absence of chemical substance: 1.3
Yeast gene YKR066C
  The level of expressed mRNA in the presence of chemical substance/The level of expressed mRNA in the absence of chemical substance: 1.1
Yeast gene YKR105C
  The level of expressed mRNA in the presence of chemical substance/The level of expressed mRNA in the absence of chemical substance: 1.0
Yeast gene YKR106W
  The level of expressed mRNA in the presence of chemical substance/The level of expressed mRNA in the absence of chemical substance: 0.8
Yeast gene YLL028W
  The level of expressed mRNA in the presence of chemical substance/The level of expressed mRNA in the absence of chemical substance: 1.2
Yeast gene YLL057C
  The level of expressed mRNA in the presence of chemical substance/The level of expressed mRNA in the absence of chemical substance: 1.3
Yeast gene YLL060C
  The level of expressed mRNA in the presence of chemical substance/The level of expressed mRNA in the absence of chemical substance: 2.3
Yeast gene YLR043C
  The level of expressed mRNA in the presence of chemical substance/The level of expressed mRNA in the absence of chemical substance: 2.2
Yeast gene YLR046C
  The level of expressed mRNA in the presence of chemical substance/The level of expressed mRNA in the absence of chemical substance: 5.4
Yeast gene YML028W
  The level of expressed mRNA in the presence of chemical substance/The level of expressed mRNA in the absence of chemical substance: 1.5
Yeast gene YML116W
  The level of expressed mRNA in the presence of chemical substance/The level of expressed mRNA in the absence of chemical substance: 1.0
Yeast gene YMR015C
  The level of expressed mRNA in the presence of chemical substance/The level of expressed mRNA in the absence of chemical substance: 1.0
Yeast gene YMR038C
  The level of expressed mRNA in the presence of chemical substance/The level of expressed mRNA in the absence of chemical substance: 1.3
Yeast gene YNL239W
  The level of expressed mRNA in the presence of chemical substance/The level of expressed mRNA in the absence of chemical substance: 1.4
Yeast gene YNL241C
  The level of expressed mRNA in the presence of chemical substance/The level of expressed mRNA in the absence of chemical substance: 1.0
Yeast gene YNL259C
  The level of expressed mRNA in the presence of chemical substance/The level of expressed mRNA in the absence of chemical substance: 2.4
Yeast gene YOL158C
  The level of expressed mRNA in the presence of chemical substance/The level of expressed mRNA in the absence of chemical substance: 1.7
Yeast gene YOR031W
  The level of expressed mRNA in the presence of chemical substance/The level of expressed mRNA in the absence of chemical substance: 2.4
Yeast gene YOR153W
  The level of expressed mRNA in the presence of chemical substance/The level of expressed mRNA in the absence of chemical substance: 3.1
Yeast gene YOR247W
  The level of expressed mRNA in the presence of chemical substance/The level of expressed mRNA in the absence of chemical substance: 0.9
Yeast gene YOR251C
  The level of expressed mRNA in the presence of chemical substance/The level of expressed mRNA in the absence of chemical substance: 1.3
Yeast gene YOR273C
  The level of expressed mRNA in the presence of chemical substance/The level of expressed mRNA in the absence of chemical substance: 3.1
Yeast gene YPL163C
  The level of expressed mRNA in the presence of chemical substance/The level of expressed mRNA in the absence of chemical substance: 1.4
Yeast gene YPR200C
  The level of expressed mRNA in the presence of chemical substance/The level of expressed mRNA in the absence of chemical substance: 1.0

— US8192962B2, “Processes for detecting toxic substances” (Daikin Industries, Ltd., priority 2001, dated 2012)
